# Read-outs that look alike come from different tables or passages of the source.
# What was measured:
# Assay in all cases: Methyltransferase selectivity assay (SPA)
# Format in all cases: biochemical
# [1] = molecular target: T1, MLL1 trimeric complex (Homo sapiens, UniProt Q03164)
# T1 construct: purchased Structural Genomics Consortium (SGC Toronto) in-house methyltransferase panel
# Experimental: (§1) Selectivity against methyltransferases were determined as described previously. Details of the assays are described in the supplementary methods.
# (§2) Methyltransferase selectivity assay1
# (§3) The effect of chemical probes and negative controls on the methyltransferase activities of protein, DNA and RNA methyltransferases was tested by radiometric assays using 3H-SAM. For proteins such as MLL1 trimeric, MLL3 pentameric, EZH1 (PRC2) pentameric, and EZH2 (PRC2) trimeric complexes, as well as G9a, GLP, SUV39H1, SUV39H2, SUV420H1, SUV420H2, SETD2, SETD8, SETDB1, SETD7, PRMT1, PRMT3, PRMT4, PRMT5/ MEP50 complex, PRMT6, PRMT7, PRMT8, PRMT9, PRDM9, SMYD2, SMYD3, DNMT1, and BCDIN3D the incorporation of a tritium-labeled methyl group into biotinylated substrate was monitored using scintillation proximity assay (SPA). Briefly, a 10 µL reaction containing 3H-SAM and substrate at concentrations close to the apparent Km values for each enzyme (balanced conditions) was prepared. The reactions were quenched with 10 µL of 7.5 M guanidine hydrochloride; 180 µL of 20 mM Tris buffer (pH 8.0) were added, and the mixture was transferred to a 96-well FlashPlate and incubated for 1 h. The counts per minute (CPM) was measured on a TopCount plate reader. The CPM in the absence of compound or enzyme was defined as 100% activity and background (0%), respectively, for each dataset. […]
# [2] = molecular target: T2, SETD8 (Homo sapiens, UniProt Q9NQR1)
# T2 construct: purchased Structural Genomics Consortium (SGC Toronto) in-house methyltransferase panel
# T2 sequence (Q9NQR1 1-393): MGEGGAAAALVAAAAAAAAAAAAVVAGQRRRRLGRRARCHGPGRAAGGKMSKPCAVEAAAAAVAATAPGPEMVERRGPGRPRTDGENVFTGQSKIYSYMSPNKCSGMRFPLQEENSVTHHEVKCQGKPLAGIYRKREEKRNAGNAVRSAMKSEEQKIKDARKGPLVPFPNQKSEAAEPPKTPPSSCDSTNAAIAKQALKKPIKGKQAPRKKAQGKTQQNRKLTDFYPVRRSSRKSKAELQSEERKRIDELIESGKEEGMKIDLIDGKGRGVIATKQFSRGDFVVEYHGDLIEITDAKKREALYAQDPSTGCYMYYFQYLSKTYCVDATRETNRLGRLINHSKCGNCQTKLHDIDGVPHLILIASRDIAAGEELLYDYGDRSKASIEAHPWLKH
# Experimental: as §1, §2, §3
# [3] = molecular target: T3, PRMT4 (Homo sapiens, UniProt Q86X55)
# T3 construct: purchased Structural Genomics Consortium (SGC Toronto) in-house methyltransferase panel
# T3 sequence (Q86X55 1-608): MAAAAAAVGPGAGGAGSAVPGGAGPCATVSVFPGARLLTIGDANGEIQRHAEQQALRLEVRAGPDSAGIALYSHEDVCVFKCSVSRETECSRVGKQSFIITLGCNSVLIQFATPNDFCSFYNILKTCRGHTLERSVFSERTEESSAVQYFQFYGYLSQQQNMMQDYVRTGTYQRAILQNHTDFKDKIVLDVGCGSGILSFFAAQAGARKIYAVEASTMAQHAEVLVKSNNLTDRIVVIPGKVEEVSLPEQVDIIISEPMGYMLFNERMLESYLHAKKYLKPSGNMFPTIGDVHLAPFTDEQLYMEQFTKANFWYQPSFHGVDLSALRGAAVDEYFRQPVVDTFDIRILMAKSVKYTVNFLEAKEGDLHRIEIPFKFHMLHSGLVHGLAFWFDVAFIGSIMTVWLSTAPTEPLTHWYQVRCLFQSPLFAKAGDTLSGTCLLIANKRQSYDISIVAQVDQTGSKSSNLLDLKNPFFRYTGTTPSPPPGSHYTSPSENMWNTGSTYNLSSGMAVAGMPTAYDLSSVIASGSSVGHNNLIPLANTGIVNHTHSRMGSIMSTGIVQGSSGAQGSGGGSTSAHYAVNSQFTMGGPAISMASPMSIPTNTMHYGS
# Experimental: as §1, §2, §3
# [4] = molecular target: T4, PRMT8 (Homo sapiens, UniProt Q9NR22); conditions: for activity at 1 µM / Activity %: 1µM compound; for Activity %: Exp1, Exp2, 1 µM; for activity at 10 µM: 10µM compound
# T4 construct: purchased Structural Genomics Consortium (SGC Toronto) in-house methyltransferase panel
# Experimental: as §1, §2, §3
# [5] = molecular target: T5, PRMT3 (Homo sapiens, UniProt O60678)
# T5 construct: purchased Structural Genomics Consortium (SGC Toronto) in-house methyltransferase panel
# Experimental: as §1, §2, §3
# [6] = molecular target: T6, SETD7 (Homo sapiens, UniProt Q8WTS6)
# T6 construct: purchased Structural Genomics Consortium (SGC Toronto) in-house methyltransferase panel
# T6 sequence (Q8WTS6 1-366): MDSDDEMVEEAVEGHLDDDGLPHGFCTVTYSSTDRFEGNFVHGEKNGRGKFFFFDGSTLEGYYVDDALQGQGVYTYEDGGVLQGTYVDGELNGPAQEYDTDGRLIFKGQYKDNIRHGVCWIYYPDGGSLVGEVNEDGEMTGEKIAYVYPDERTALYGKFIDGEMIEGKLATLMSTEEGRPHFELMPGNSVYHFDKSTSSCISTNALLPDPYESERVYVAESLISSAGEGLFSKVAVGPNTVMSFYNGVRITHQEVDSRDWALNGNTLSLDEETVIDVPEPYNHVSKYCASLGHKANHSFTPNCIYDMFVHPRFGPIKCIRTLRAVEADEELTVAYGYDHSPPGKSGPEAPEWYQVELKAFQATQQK
# Experimental: as §1, §2, §3
# [7] = molecular target: T7, SETD2 (Homo sapiens, UniProt Q9BYW2)
# T7 construct: purchased Structural Genomics Consortium (SGC Toronto) in-house methyltransferase panel
# Experimental: as §1, §2, §3
# [8] = 10µM compound, Exp1, Exp2, 10 µM
# [9] = 1µM compound, Exp1, Exp2, read-out: Activity %
# [10] = 10µM compound, Exp1, Exp2, read-out: Activity %
# [11] = Exp1, Exp2, read-out: Activity %
# T7 sequence (Q9BYW2 whole entry): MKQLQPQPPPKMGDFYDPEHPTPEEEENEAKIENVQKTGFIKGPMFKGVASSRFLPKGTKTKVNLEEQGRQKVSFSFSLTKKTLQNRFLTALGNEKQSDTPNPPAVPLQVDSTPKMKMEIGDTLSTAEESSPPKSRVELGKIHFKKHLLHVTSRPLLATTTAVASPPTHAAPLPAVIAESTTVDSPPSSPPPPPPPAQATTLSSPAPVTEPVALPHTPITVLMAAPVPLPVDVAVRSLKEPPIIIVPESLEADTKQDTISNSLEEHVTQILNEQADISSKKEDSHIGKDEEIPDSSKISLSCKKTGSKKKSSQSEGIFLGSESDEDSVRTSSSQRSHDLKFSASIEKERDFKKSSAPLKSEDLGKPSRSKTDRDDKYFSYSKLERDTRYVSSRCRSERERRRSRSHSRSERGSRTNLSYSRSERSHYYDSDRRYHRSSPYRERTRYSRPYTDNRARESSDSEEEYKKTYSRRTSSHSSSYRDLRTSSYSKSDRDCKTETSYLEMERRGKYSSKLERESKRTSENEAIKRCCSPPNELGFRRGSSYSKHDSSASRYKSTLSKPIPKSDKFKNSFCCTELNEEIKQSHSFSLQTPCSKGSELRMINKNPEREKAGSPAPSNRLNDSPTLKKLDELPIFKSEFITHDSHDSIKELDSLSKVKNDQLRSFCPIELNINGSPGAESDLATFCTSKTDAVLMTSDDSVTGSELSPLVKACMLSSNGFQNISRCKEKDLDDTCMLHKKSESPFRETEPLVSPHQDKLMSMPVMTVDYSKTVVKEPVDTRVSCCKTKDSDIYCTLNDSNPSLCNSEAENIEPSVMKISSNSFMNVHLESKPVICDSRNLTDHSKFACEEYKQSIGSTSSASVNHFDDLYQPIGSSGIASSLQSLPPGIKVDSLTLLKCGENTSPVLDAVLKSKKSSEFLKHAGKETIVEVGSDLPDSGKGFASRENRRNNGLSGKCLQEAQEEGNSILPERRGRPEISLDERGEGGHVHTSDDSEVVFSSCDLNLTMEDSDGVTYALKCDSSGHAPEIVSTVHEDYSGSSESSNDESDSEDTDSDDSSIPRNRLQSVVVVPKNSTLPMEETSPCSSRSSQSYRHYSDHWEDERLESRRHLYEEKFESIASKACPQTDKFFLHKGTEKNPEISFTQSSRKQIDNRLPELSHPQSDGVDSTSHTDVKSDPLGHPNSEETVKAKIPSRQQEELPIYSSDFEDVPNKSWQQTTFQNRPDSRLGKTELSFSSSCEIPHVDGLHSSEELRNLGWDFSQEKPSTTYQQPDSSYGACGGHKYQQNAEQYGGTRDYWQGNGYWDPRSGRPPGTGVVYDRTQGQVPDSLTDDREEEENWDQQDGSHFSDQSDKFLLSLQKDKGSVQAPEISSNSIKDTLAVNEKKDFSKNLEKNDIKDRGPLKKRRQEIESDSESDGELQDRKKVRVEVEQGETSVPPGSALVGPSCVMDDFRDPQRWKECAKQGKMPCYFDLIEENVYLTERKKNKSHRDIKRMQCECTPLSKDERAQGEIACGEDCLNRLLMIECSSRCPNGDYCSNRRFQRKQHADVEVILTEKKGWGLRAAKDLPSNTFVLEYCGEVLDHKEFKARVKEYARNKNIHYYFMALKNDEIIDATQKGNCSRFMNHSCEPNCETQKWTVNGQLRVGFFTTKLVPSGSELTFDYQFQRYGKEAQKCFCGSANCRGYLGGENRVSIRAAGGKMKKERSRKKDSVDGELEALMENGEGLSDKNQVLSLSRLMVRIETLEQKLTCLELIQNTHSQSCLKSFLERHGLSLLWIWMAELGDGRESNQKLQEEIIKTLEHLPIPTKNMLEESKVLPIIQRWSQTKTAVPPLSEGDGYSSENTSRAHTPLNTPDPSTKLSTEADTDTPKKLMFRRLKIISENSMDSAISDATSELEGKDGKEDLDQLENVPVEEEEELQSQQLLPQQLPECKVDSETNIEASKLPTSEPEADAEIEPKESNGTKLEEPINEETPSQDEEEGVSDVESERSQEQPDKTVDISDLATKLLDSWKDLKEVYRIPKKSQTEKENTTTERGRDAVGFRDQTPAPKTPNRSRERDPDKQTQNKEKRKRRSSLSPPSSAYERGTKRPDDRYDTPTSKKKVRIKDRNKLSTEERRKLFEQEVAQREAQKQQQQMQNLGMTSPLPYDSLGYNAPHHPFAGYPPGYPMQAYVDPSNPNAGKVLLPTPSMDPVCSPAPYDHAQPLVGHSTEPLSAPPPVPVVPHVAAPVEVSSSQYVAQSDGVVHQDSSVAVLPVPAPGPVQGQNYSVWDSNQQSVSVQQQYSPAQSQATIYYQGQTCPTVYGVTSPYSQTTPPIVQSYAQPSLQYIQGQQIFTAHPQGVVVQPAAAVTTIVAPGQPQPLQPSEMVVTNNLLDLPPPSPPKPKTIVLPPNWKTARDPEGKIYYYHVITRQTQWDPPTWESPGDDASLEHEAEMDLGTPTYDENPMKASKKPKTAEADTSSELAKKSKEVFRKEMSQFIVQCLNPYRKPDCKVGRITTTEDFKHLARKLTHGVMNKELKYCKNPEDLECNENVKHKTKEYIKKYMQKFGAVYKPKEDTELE
# T4 sequence (Q9NR22 whole entry): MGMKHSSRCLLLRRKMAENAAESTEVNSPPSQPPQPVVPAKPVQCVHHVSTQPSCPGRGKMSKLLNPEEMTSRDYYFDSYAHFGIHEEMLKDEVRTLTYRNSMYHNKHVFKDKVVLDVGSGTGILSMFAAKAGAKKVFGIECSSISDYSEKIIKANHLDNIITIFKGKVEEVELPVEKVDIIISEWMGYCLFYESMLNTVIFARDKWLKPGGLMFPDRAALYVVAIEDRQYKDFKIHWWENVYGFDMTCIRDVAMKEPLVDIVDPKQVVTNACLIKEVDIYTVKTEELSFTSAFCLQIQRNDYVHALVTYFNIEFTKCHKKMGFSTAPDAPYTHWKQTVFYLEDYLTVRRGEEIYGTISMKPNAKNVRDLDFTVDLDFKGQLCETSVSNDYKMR
# T5 sequence (O60678 whole entry): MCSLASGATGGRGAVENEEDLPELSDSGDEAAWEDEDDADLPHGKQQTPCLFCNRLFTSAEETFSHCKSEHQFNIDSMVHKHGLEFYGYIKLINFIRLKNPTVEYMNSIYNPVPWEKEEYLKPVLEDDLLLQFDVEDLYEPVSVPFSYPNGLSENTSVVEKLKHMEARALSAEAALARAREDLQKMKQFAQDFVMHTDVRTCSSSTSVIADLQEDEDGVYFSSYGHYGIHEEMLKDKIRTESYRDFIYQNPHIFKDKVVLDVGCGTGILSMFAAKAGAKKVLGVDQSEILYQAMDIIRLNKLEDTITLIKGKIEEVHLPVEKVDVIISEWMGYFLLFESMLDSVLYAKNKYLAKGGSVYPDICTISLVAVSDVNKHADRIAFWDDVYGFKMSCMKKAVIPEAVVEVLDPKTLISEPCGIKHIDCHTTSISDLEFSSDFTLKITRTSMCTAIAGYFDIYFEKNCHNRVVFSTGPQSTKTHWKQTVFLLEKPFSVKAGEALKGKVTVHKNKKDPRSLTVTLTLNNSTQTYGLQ
compound,measurement,setting,value
COc1cc(OC)cc(-c2noc(N3CCN(C)C4(CCN(c5ccccc5)CC4)C3)n2)c1 [MRK-740 -NC],activity at 1 µM,"[1]; 1µM compound, Exp1, Exp2",95%
same,activity at 10 µM,"[1]; 10µM compound, Exp1, Exp2",98%
same,Activity %,[1]; [8],97%
same,activity at 1 µM,"[2]; 1µM compound, Exp1, Exp2",107%
same,Activity %,"[2]; 1µM compound, Exp1, Exp2, 1 µM",95%
same,activity at 10 µM,"[2]; 10µM compound, Exp1, Exp2",94%
same,Activity %,[2]; [8],92%
same,activity at 1 µM,"[3]; 1µM compound, Exp1, Exp2",108%
same,Activity %,"[3]; 1µM compound, Exp1, Exp2, 1 µM",89%
same,activity at 10 µM,"[3]; 10µM compound, Exp1, Exp2",87%
same,Activity %,[3]; [8],89%
same,activity at 1 µM,"[4]; Exp1, Exp2",97%
same,Activity %,[4],104%
same,activity at 10 µM,"[4]; Exp1, Exp2",98%
same,activity at 1 µM,"[5]; 1µM compound, Exp1, Exp2",105%
same,Activity %,"[5]; 1µM compound, Exp1, Exp2, 1 µM",106%
same,activity at 10 µM,"[5]; 10µM compound, Exp1, Exp2",104%
same,Activity %,[5]; [8],97%
same,activity at 1 µM,"[6]; 1µM compound, Exp1, Exp2",96%
same,Activity %,"[6]; 1µM compound, Exp1, Exp2, 1 µM",95%
same,activity at 10 µM,"[6]; 10µM compound, Exp1, Exp2",94%
same,Activity %,[6]; [8],88%
same,activity at 1 µM,"[7]; 1µM compound, Exp1, Exp2",97%
same,Activity %,"[7]; 1µM compound, Exp1, Exp2, 1 µM",107%
same,activity at 10 µM,"[7]; 10µM compound, Exp1, Exp2",99%
same,Activity %,[7]; [8],98%
COc1cc(OC)cc(-c2noc(N3CCN(C)C4(CCN(c5ccnc(C)c5)CC4)C3)n2)c1 [MRK-740],Activity %,"[1]; 1µM compound, Exp1, Exp2, 1 µM",90%
same,activity at 1 µM,[1]; [9],96%
same,Activity %,[1]; [8],90%
same,activity at 10 µM,[1]; [10],94%
same,activity at 1 µM,[2]; [9],99%
same,activity at 10 µM,[2]; [10],101%
same,Activity %,"[3]; 1µM compound, Exp1, Exp2, 1 µM",98%
same,activity at 1 µM,[3]; [9],101%
same,Activity %,[3]; [8],99%
same,activity at 10 µM,[3]; [10],96%
same,Activity %,[4],95%
same,activity at 1 µM,[4]; [11],104%
same,activity at 10 µM,[4]; [11],105%
same,Activity %,"[5]; 1µM compound, Exp1, Exp2, 1 µM",88%
same,activity at 1 µM,[5]; [9],90%
same,Activity %,[5]; [8],87%
same,activity at 10 µM,[5]; [10],92%
same,Activity %,"[6]; 1µM compound, Exp1, Exp2, 1 µM",92%
same,activity at 1 µM,[6]; [9],93%
same,Activity %,[6]; [8],87%
same,activity at 10 µM,[6]; [10],90%
same,Activity %,"[7]; 1µM compound, Exp1, Exp2, 1 µM",96%
same,activity at 1 µM,[7]; [9],97%
same,Activity %,[7]; [8],86%
same,activity at 10 µM,[7]; [10],90%

# Reference: article PMC6917776, “Discovery of a chemical probe for PRDM9” (Nature Communications, 2019)
